Each structure is given as a SMILES string.

From publication PMC6511404 (Biochemistry, 2019) come the findings set out here.

For test [1], the target named is T1, E. coli enolase (Escherichia coli, UniProt P0A6P9). As to the kind of experiment: X-ray crystal structure, […] Å. In kind it is binding.
Target sequence in this assay (P0A6P9 whole entry): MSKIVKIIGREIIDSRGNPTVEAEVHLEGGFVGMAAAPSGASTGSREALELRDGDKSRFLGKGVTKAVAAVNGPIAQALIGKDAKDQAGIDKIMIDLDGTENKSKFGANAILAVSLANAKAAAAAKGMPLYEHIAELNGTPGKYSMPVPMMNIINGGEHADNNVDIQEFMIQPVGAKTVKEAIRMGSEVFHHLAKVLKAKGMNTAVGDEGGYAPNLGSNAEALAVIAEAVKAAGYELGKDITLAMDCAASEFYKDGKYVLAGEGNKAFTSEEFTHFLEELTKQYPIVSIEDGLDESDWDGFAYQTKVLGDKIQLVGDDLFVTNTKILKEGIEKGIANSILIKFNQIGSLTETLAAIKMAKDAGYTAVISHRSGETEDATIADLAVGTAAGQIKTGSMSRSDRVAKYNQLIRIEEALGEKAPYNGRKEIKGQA
In test [2] the target is T1, E. coli enolase. As to the kind of experiment: enolase assay, % inhibition at […]. In kind it is biochemical. As to conditions: read-out: % inhibition at 20 μM.
Target sequence in this assay (P0A6P9 2-432): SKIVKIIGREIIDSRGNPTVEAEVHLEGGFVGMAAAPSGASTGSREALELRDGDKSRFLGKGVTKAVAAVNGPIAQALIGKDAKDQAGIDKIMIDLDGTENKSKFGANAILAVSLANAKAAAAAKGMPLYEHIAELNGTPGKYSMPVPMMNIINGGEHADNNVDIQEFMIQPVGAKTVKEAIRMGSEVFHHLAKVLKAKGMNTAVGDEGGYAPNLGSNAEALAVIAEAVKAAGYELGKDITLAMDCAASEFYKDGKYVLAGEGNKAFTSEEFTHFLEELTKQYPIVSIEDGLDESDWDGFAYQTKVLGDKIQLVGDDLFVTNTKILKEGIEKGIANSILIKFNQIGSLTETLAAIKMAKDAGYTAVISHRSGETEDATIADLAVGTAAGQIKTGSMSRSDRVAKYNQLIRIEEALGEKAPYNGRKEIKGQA

Turning to `O=C(O)C(CO)OP(=O)(O)O` (centres unmarked) [2-PGA], the “X-ray crystal structure, 1.8 Å” value at E. coli enolase [1] was “we observe a fully occupied active site with 2-PGA and two Mg-ions bound (PDB 6BFy)”.
For orientation: inhibition means the change of the read-out against control, counted positive when it falls. For the compound `NCCOCCOCCNC(=O)Cc1ccc(Nc2nc(NCc3ccc(F)cc3)nc(NCC3CCCCC3)n2)cc1` [compound 41, ENOblock], the inhibition at 20 µM at E. coli enolase [2] is 41%.
